Tests used:
[1] = Isothermal titration calorimetry of the small molecule with zinc or copper; type: binding; conditions: ITC, data not shown
[2] = system: untransformed MCF-10A cells; assay: Clonogenic cell survival assay; conditions: 24 hours ZNA, then three weeks of growth, crystal violet
Procedure: (§3) Clonogenic cell survival assays were conducted as described in Franken NAP, Rodermond H M, Stap J, Haveman J, van Bree C.
(§4) Further experiments were also conducted to assess the effects of short-term ZNA treatment on long-term cell survival and proliferation. Cells were treated for 24 hours with ZNA then cultured in the absence of the small molecule; following three weeks of growth, colonies were stained with crystal violet and quantified (FIG. 1D).

MCF-7 cells [3] = assay: Intracellular Zn^2+ by FluoZin-3 staining and flow cytometry; type: cell-based, human
Procedure: Measurement of intracellular Zn^2+ by FluoZin-3 staining: Cells were seeded in 6-well plates at a density such that at the time of analysis, wells would be 70-80% confluent. Following the completion of treatment, the drug-containing media was removed and replaced with Hank's Balanced Salt Solution (HBSS, Life Technologies) containing 2.5 μM FluoZin-3. The cells were incubated with the indicator for 30 minutes at room temperature in the dark. After staining, the cells were trypsinized, resuspended in HBSS containing 2% FBS, and relative mean fluorescence was measured by flow cytometry (FACscan, BD Biosciences, San Jose, Calif., USA).
In order to determine whether the transcriptional changes in metal trafficking genes were functionally relevant to ZNA's mechanism of action, intracellular Zn^2+ was quantified using the fluorescent indicator FluoZin-3 followed by flow cytometry analysis (FIG. 1G).
Further probing the ability of ZNA to stimulate increases in intracellular Zn^2+, MCF-10A and MCF-7 cells were treated for three hours with 30 μM ZNA (both with and without exogenous ZnSO4) in zinc-free media; intracellular zinc was then quantified by FluoZin-3 staining (FIG. 3B).

LC3 in MCF-10A cells = assay: Western blot of autophagosome-associated protein LC3A/B; type: cell-based, human
Procedure: Western blot analysis: For analysis of protein expression by Western blot analysis, the procedure set forth in Gligorich et al. was used. Gligorich K, Vaden R, Shelton D, Wang G, Matsen C, Looper R, et al. Development of a screen to identify selective small molecules active against patient-derived metastatic and chemoresistant breast cancer cells. Breast Cancer Res 2013; 15(4):R58. The cells were cultured and treated in 10-cm plates. Cells were harvested in cold radioimmunoprecipitation assay (RIPA) buffer (50 mM Tris-HCl, 150 mM NaCl, 0.1% sodium dodecyl sulfate (SDS), 0.5% sodium deoxycholate, and 1% Triton X-100) supplemented with protease and phosphatase inhibitors (Sigma). Protein concentration was measured using a BCA assay (Thermo Scientific) and […] of protein was resolved by gel electrophoresis using an SDS polyacrylamide gel. Protein was transferred to an Immobilon-FL PVDF membrane (Millipore, Billerica, Mass., USA) and the membrane was blocked for 1 hour at room temperature with Odyssey blocking buffer (Li—COR). […]
Further cell death characterization studies were also conducted to establish the role of autophagy in ZNA-mediated cell death. To assess the level of autophagic induction following treatment with ZNA, levels of the autophagosome-associated protein LC3A/B were measured by western blot analysis. […]

MCF-7s = assay: Cell viability of MCF-7 cells treated with ZNA and ZNA analogues; type: cell-based, human; conditions: Homo sapiens, MCF7S; 24 h treatment
Description: Of the analogues evaluated, those with more electron-donating groups at C5 or on the N^2-carbonyl seem to improve activity.

[4] = Zn^2+ binding, (ZNA)2Zn dimer formation (MeOH precipitation, X-ray, NMR)
Description: The structure of the solid product was confirmed by X-ray crystallography (FIG. 14B). […] HCl in D2O protonates the ligand off the metal center, as evidenced by the disappearance of the diastereotopic benzyllic AB quartet in the dimer and its appearance as a singlet in the monomer. […] Of the analogues evaluated, those with more electron-donating groups at C5 or on the N^2-carbonyl seem to improve activity.

[5] = system: cancer cells (malignant cell types tested); assay: Clonogenic cell survival assay; conditions: 24 hours ZNA, then three weeks of growth, crystal violet
Procedure: as §3, §4

T47D cells = assay: Total cellular Zn^2+ by ICP-AES; type: cell-based, human; conditions: 30 μM ZNA with 30 μM ZnSO4, three hours
Procedure: (§1) Inductively coupled plasma-atomic emission spectroscopy (ICP-AES) analysis: Cells were cultured to 80% confluence in 10-cm plates and the growth media was then replaced with low serum (2% FBS) drug-containing media. After three hours of treatment, the media was discarded and the cells washed with 1×PBS. To each 10-cm plate, 1 mL of nitric acid (TraceSELECT Ultra for trace analysis, Sigma) was added directly to the plate. The nitric acid mixture was submitted for inductively coupled plasma-atomic emission spectroscopy (ICP-AES) analysis following methods established by the Environmental Protection Agency. Martin T D, Brockhoff C A, Creed J T. Method 200.7 Determination of Metals and Trace Elements in Water and Wastes by Inductively Coupled Plasma-Atomic Emission Spectrometry. Environmental Monitoring Systems Laboratory, US Environmental Protection Agency 1994. The experiment was performed in triplicate for each cell line and a fourth plate of cells was used to measure total protein (BCA assay, Thermo Fisher, Waltham, Mass., USA). The ICP-AES data were then normalized to total protein for each cell line used.
(§2) To further validate the combinatorial effect of ZNA and Zn^2+, inductively coupled plasma-atomic emission spectroscopy (ICP-AES) was employed to quantify absolute levels of cellular Zn^2+ following treatment. Four cell lines were treated with either 30 μM ZNA alone or 30 μM ZNA in conjunction with 30 μM ZnSO4 for three hours before harvesting. The samples were then analyzed by ICP-AES and the resulting data normalized to total protein (FIG. 8). […] The values obtained from the ICP-AES experiment correlate with the trends observed following FluoZin-3 measurements of Zn^2+, confirming the specificity of the fluorophore for Zn^2+ over other ions.

MDA-MB-231 cells = assay: Total cellular Zn^2+ by ICP-AES; type: cell-based, human; conditions: 30 μM ZNA with 30 μM ZnSO4, three hours
Procedure: as §1, §2

MCF-10A cells [6] = assay: Total cellular Zn^2+ by ICP-AES; type: cell-based, human; conditions: 30 μM ZNA with 30 μM ZnSO4, three hours; detection limit 1.00 μg/L
Procedure: as §1, §2

MCF-7 cells [7] = assay: Total cellular Zn^2+ by ICP-AES; type: cell-based, human; conditions: 30 μM ZNA with 30 μM ZnSO4, three hours
Procedure: as §1, §2

MCF-10A cells [8] = assay: Cellular proliferation, EdU incorporation assay; type: cell-based, human; conditions: ZNA/ZnSO4, 6 hours
[9] = system: MCF-10A normal mammary epithelial cell line; assay: Cell viability (ATP quantification) with exogenously added transition metals
Procedure: Three breast cancer cell lines (MCF-7, T47D, and MDA-MB-231) and a normal mammary epithelial cell line (MCF-10A) were treated with 30 μM ZNA in conjunction with 30 M CuSO4, ZnSO4, Fe(III)Cl3, Fe(II)SO4, NiSO4, MnCl2, or CoCl2 for 48 hours; following the completion of treatment, cell viability was measured using an ATP quantification assay (FIG. 2A).

Question: With COc1ccc(-c2c(Cc3ccccc3)[nH]/c(=N\C(=O)c3ccccc3F)n2C)cc1 [ZNA, (E)-N-(4-benzyl-5-(4-methoxyphenyl)-1-methyl-1H-imidazol-2(3H)-ylidene)-2-fluorobenzamide] as the compound, how does the “direct interaction with zinc or copper” value [1] read?
Answer: no evidence to suggest direct binding

Question: What about the “long-term proliferative potential (colonies)” value [2] of the same compound?
Answer: greatly attenuated

Question: And the “increase in FluoZin-3 fluorescence” value (MCF-7 cells [3]; 30 μM ZNA alone, 48 hours)?
Answer: 13 fold

Question: And the FluoZin-3 fluorescence (MCF-7 cells [3]; 30 μM ZNA alone, three hours, zinc-free media)?
Answer: no significant increase in FluoZin-3 fluorescence

Question: What about the “increase in fluorescence (FluoZin-3)” value (MCF-7 cells [3]; ZNA and ZnSO4, three hours, zinc-free media, compared to ZnSO4 alone) of the same compound?
Answer: 4.3 fold

Question: And the LC3 protein (LC3 in MCF-10A cells; 30 μM ZNA with 30 μM ZnSO4, 6 hours)?
Answer: significant increases were not observed

Question: And the LC3 level (LC3 in MCF-10A cells; ZNA alone, 48 and 72 hours)?
Answer: only in the cancer cell lines

Question: And the IC50 (MCF-7s)?
Answer: 8.8 µM

Question: What about the “Zn^2+ binding” value [4] of the same compound?
Answer: binds Zn^2+ in a pH dependent fashion

Question: What about the “long-term proliferative potential (colonies)” value [5] of the same compound?
Answer: significantly affected long-term proliferative potential

Question: What about the “concentration of Zn^2+” value (T47D cells) of the same compound?
Answer: 0.52 ng Zn^2+ per microgram of protein

Question: What about the “concentration of Zn^2+” value (MDA-MB-231 cells) of the same compound?
Answer: 0.82 ng Zn^2+ per microgram of protein

Question: What about the “concentration of Zn^2+” value (MCF-10A cells [6]) of the same compound?
Answer: not detectable

Question: And the “concentration of Zn^2+” value (MCF-7 cells [7])?
Answer: 1.35 ng Zn^2+ per microgram of protein

Question: What about the “proliferation (EdU)” value (MCF-10A cells [8]) of the same compound?
Answer: somewhat affected

Question: And the cell viability ([9]; 30 μM ZNA with CuSO4, 48 hours)?
Answer: significant reduction in cell viability

Question: What about the cell viability ([9]; 30 μM ZNA with ZnSO4, 48 hours) of the same compound?
Answer: only a partial reduction in cell number

Reference: patent publication US10493061B2, “Compositions and methods comprising 2-(acylamino)imidazoles” (priority 2014, dated 2019)
